Results: patent US11730712B2, “Functionalized long-chain hydrocarbon mono- and di-carboxylic acids and derivatives thereof, and their use for the prevention or treatment of disease” (ESPERVITA THERAPEUTICS, INC., priority 2021, dated 2023)

System: liver fibrosis gene panel (770 genes)
Test: Nanostring nCounter Fibrosis panel gene expression in liver of DEN-injected mice
Format: in vivo, mouse
Procedure: Nanostring Analysis. RNA was extracted from paired liver and tumor tissue from vehicle, Compound I-1 (100 mg/kg) and Compound I-32 (100 mg/kg) treated mice using an RNeasy kit (Qiagen, Calif., USA) as per manufacturer's protocol. All RNA samples passed the BioAnalyzer quality control test. The expression of target genes in liver and tumor were analyzed using the nCounter Fibrosis and Cancer Panel (NanoString Technologies, Inc., WA, USA), respectively according to manufacturer's protocol at the McMaster Genomics Facility. Technical and biological normalization against global geometric mean was performed in nSolver 4.0 software (NanoString Technologies). Technical normalization was performed in the nSolver software (version 4.0.70) by normalizing sample target raw counts to the geometric mean of positive control spike-ins. Biological normalization was performed by normalizing sample target raw counts to the geometric mean of selected housekeeping genes (Ppia, Nubp1, Nol7, Armh3, Rplp0, Cnot10, Pgk1, and Acad9). Pathway scores were calculated as the first principal component of the normalized expression values for all genes in each pathway and samples were compiled according to experimental groups to determine average pathway scores. Statistical significance was calculated between experimental groups using multiple t-tests and p-values were corrected for multiple comparisons using Benjamin-Hochberg false discovery rate.
Molecular analysis. To identify the pathways modulated in the liver and tumor tissue, nanostring analysis of fibrosis and cancer, pathways, respectively were completed in an n=8 mice treated with vehicle or Compound I-32 or Compound I-1 at 100 mg/kg.

Question: What does the source list for `CC(C)(CCCCc1ccc(CCCCC(C)(C)C(=O)O)cc1)C(=O)O` [Compound I-1, 6-[4-(5-carboxy-5-methylhexyl)-phenyl]-2,2-dimethylhexanoic acid]?
Answer: number of genes downregulated (100 mg/kg, 4 weeks): 170; number of genes upregulated (100 mg/kg, 4 weeks): 86; number of genes with altered expression relative to vehicle controls (770 genes measured) (100 mg/kg, 4 weeks): 256; Casp7 Log2FC (NM_00761-1, 100 mg/kg, vs vehicle): −0.522; Adh1 Log2FC (NM_007409, 100 mg/kg, vs vehicle): 0.603; Aldh3a2 Log2FC (NM_007437, 100 mg/kg, vs vehicle): 1.1; Ap1s1 Log2FC (NM_007457, 100 mg/kg, vs vehicle): 0.242; Apoa4 Log2FC (NM_007468, 100 mg/kg, vs vehicle): −4.07; Ctnnb1 Log2FC (NM_007614, 100 mg/kg, vs vehicle): −0.17; Cd36 Log2FC (NM_007643, 100 mg/kg, vs vehicle): 1.32; Cdh2 Log2FC (NM_007664, 100 mg/kg, vs vehicle): −0.164; Cebpa Log2FC (NM_007678, 100 mg/kg, vs vehicle): −0.363; Cfi Log2FC (NM_007686, 100 mg/kg, vs vehicle): −0.56; Chil1 Log2FC (NM_007695, 100 mg/kg, vs vehicle): 2.06; Col1a1 Log2FC (NM_007742, 100 mg/kg, vs vehicle): −1.21; Col1a2 Log2FC (NM_007743, 100 mg/kg, vs vehicle): −0.924; Cox6a1 Log2FC (NM_007748, 100 mg/kg, vs vehicle): 0.432; Cox7c Log2FC (NM_007749, 100 mg/kg, vs vehicle): 0.501; Crp Log2FC (NM_007768, 100 mg/kg, vs vehicle): −0.931; Cybb Log2FC (NM_007807, 100 mg/kg, vs vehicle): −0.522; Cyp7a1 Log2FC (NM_007824, 100 mg/kg, vs vehicle): −1.07; Eef2k Log2FC (NM_007908, 100 mg/kg, vs vehicle): 0.422; Ephx2 Log2FC (NM_007940, 100 mg/kg, vs vehicle): 0.794; F5 Log2FC (NM_007976, 100 mg/kg, vs vehicle): −0.363; Fas Log2FC (NM_007987, 100 mg/kg, vs vehicle): 0.528; Fasn Log2FC (NM_007988, 100 mg/kg, vs vehicle): 0.831; Slc37a4 Log2FC (NM_008063, 100 mg/kg, vs vehicle): −1.17; Gas1 Log2FC (NM_008086, 100 mg/kg, vs vehicle): −0.608; Gpc4 Log2FC (NM_008150, 100 mg/kg, vs vehicle): −0.469; Gpr65 Log2FC (NM_008152, 100 mg/kg, vs vehicle): −0.447; Hadh Log2FC (NM_008212, 100 mg/kg, vs vehicle): 0.28; Hmgcs2 Log2FC (NM_008256, 100 mg/kg, vs vehicle): 0.291; Hsd11b1 Log2FC (NM_008288, 100 mg/kg, vs vehicle): −1.33; Hsd17b4 Log2FC (NM_008292, 100 mg/kg, vs vehicle): 0.637; Hsp90ab1 Log2FC (NM_008302, 100 mg/kg, vs vehicle): 0.407; Irf8 Log2FC (NM_008320, 100 mg/kg, vs vehicle): −0.55; ll10ra Log2FC (NM_008348, 100 mg/kg, vs vehicle): −0.737; Irf1 Log2FC (NM_008390, 100 mg/kg, vs vehicle): −0.32; Itch Log2FC (NM_008395, 100 mg/kg, vs vehicle): −0.277; Lpl Log2FC (NM_008509, 100 mg/kg, vs vehicle): 1.98; Lrp1 Log2FC (NM_008512, 100 mg/kg, vs vehicle): −0.339; Cd180 Log2FC (NM_008533, 100 mg/kg, vs vehicle): −0.776; Masp1 Log2FC (NM_008555, 100 mg/kg, vs vehicle): −0.24; Anapc1 Log2FC (NM_008569, 100 mg/kg, vs vehicle): −0.378; Mmp12 Log2FC (NM_008605, 100 mg/kg, vs vehicle): −1.53; Mmp14 Log2FC (NM_008608, 100 mg/kg, vs vehicle): −0.522; Ncf4 Log2FC (NM_008677, 100 mg/kg, vs vehicle): −0.746; Nedd8 Log2FC (NM_008683, 100 mg/kg, vs vehicle): 0.139; Nfkb1 Log2FC (NM_008689, 100 mg/kg, vs vehicle): −0.241; Pcx Log2FC (NM_008797, 100 mg/kg, vs vehicle): −0.57; Plcb3 Log2FC (NM_008874, 100 mg/kg, vs vehicle): −0.321; Plg Log2FC (NM_008877, 100 mg/kg, vs vehicle): −0.393; Ppm1a Log2FC (NM_008910, 100 mg/kg, vs vehicle): 0.148; Map2k1 Log2FC (NM_008927, 100 mg/kg, vs vehicle): −0.145; Psmc3 Log2FC (NM_008948, 100 mg/kg, vs vehicle): 0.145; Rac1 Log2FC (NM_009007, 100 mg/kg, vs vehicle): −0.093; Saa1/2 Log2FC (NM_009117, 100 mg/kg, vs vehicle): −3.03; Scd1 Log2FC (NM_009127, 100 mg/kg, vs vehicle): 0.478; Sem1 Log2FC (NM_009169, 100 mg/kg, vs vehicle): 0.385; Spp1 Log2FC (NM_009263, 100 mg/kg, vs vehicle): −0.879; Ssr4 Log2FC (NM_009279, 100 mg/kg, vs vehicle): −0.321; Tgfbr1 Log2FC (NM_009370, 100 mg/kg, vs vehicle): −0.445; Traf2 Log2FC (NM_009422, 100 mg/kg, vs vehicle): −0.247; Tnfsf10 Log2FC (NM_009425, 100 mg/kg, vs vehicle): −0.823; Axl Log2FC (NM_009465, 100 mg/kg, vs vehicle): −0.493; Apoal Log2FC (NM_009692, 100 mg/kg, vs vehicle): −1.03; Apob Log2FC (NM_009693, 100 mg/kg, vs vehicle): −0.289; Atox1 Log2FC (NM_009720, 100 mg/kg, vs vehicle): 0.157; Bcl2l1 Log2FC (NM_009743, 100 mg/kg, vs vehicle): −0.344; Serping1 Log2FC (NM_009776, 100 mg/kg, vs vehicle): −0.631; C3ar1 Log2FC (NM_009779, 100 mg/kg, vs vehicle): −0.618; Calm1 Log2FC (NM_009790, 100 mg/kg, vs vehicle): −0.334; Casp12 Log2FC (NM_009808, 100 mg/kg, vs vehicle): −0.633; Casp3 Log2FC (NM_009810, 100 mg/kg, vs vehicle): −0.346; Casp6 Log2FC (NM_009811, 100 mg/kg, vs vehicle): 0.266; Casp8 Log2FC (NM_009812, 100 mg/kg, vs vehicle): 0.195; Serpinh1 Log2FC (NM_009825, 100 mg/kg, vs vehicle): −0.486; Cdk4 Log2FC (NM_009870, 100 mg/kg, vs vehicle): 0.26; Cfh Log2FC (NM_009888, 100 mg/kg, vs vehicle): −1.41; Cxcr4 Log2FC (NM_009911, 100 mg/kg, vs vehicle): −0.931; Ccr2 Log2FC (NM_009915, 100 mg/kg, vs vehicle): −1.18; Col3a1 Log2FC (NM_009930, 100 mg/kg, vs vehicle): −0.764; Csnk2b Log2FC (NM_009975, 100 mg/kg, vs vehicle): 0.114; Ctsd Log2FC (NM_009983, 100 mg/kg, vs vehicle): 0.297; Cyp4a10/31/32 Log2FC (NM_010011, 100 mg/kg, vs vehicle): 3.15; Fcer1g Log2FC (NM_010185, 100 mg/kg, vs vehicle): −0.406; Fga Log2FC (NM_010196, 100 mg/kg, vs vehicle): −0.563; Fn1 Log2FC (NM_010233, 100 mg/kg, vs vehicle): −0.666; Got2 Log2FC (NM_010325, 100 mg/kg, vs vehicle): 0.224; H2-Aa Log2FC (NM_010378, 100 mg/kg, vs vehicle): −0.78; H2-D1 Log2FC (NM_010380, 100 mg/kg, vs vehicle): −0.266; H2-Eb1 Log2FC (NM_010382, 100 mg/kg, vs vehicle): −0.772; H2-Dma Log2FC (NM_010386, 100 mg/kg, vs vehicle): −0.391; H2-DMB1 Log2FC (NM_010387, 100 mg/kg, vs vehicle): −0.938; H2-T23 Log2FC (NM_010398, 100 mg/kg, vs vehicle): −0.403; Hc Log2FC (NM_010406, 100 mg/kg, vs vehicle): −0.325; Hif1a Log2FC (NM_010431, 100 mg/kg, vs vehicle): 0.358; Hsp90aa1 Log2FC (NM_010480, 100 mg/kg, vs vehicle): 0.693; Icam1 Log2FC (NM_010493, 100 mg/kg, vs vehicle): −0.371; Ikbkb Log2FC (NM_010546, 100 mg/kg, vs vehicle): −0.395; Ilk Log2FC (NM_010562, 100 mg/kg, vs vehicle): −0.143; Itgb1 Log2FC (NM_010578, 100 mg/kg, vs vehicle): 0.106; Fabp5 Log2FC (NM_010634, 100 mg/kg, vs vehicle): 1.1; Psmb8 Log2FC (NM_010724, 100 mg/kg, vs vehicle): −1.07; Loxl1 Log2FC (NM_010729, 100 mg/kg, vs vehicle): −1.1; Lyn Log2FC (NM_010747, 100 mg/kg, vs vehicle): −0.32; Smad2 Log2FC (NM_010754, 100 mg/kg, vs vehicle): 0.246; Myd88 Log2FC (NM_010851, 100 mg/kg, vs vehicle): 0.261; Nid1 Log2FC (NM_010917, 100 mg/kg, vs vehicle): −0.733; P4hb Log2FC (NM_011032, 100 mg/kg, vs vehicle): −0.842; Pek1 Log2FC (NM_011044, 100 mg/kg, vs vehicle): −1.88; Prkacb Log2FC (NM_011100, 100 mg/kg, vs vehicle): −0.158; Pltp Log2FC (NM_011125, 100 mg/kg, vs vehicle): 1.39; Ppard Log2FC (NM_011145, 100 mg/kg, vs vehicle): −0.466; Pparg Log2FC (NM_011146, 100 mg/kg, vs vehicle): −0.615; Prkdc Log2FC (NM_011159, 100 mg/kg, vs vehicle): −0.568; Pros1 Log2FC (NM_011173, 100 mg/kg, vs vehicle): −0.22; Lgmn Log2FC (NM_011175, 100 mg/kg, vs vehicle): −0.499; Psmb7 Log2FC (NM_011187, 100 mg/kg, vs vehicle): 0.204; Ptprc Log2FC (NM_011210, 100 mg/kg, vs vehicle): −0.49; Rein Log2FC (NM_011261, 100 mg/kg, vs vehicle): −0.45; S100a4 Log2FC (NM_011311, 100 mg/kg, vs vehicle): −1.28; Serpinf1 Log2FC (NM_011340, 100 mg/kg, vs vehicle): −0.18; Sod1 Log2FC (NM_011434, 100 mg/kg, vs vehicle): 0.352; Srebf1 Log2FC (NM_011480, 100 mg/kg, vs vehicle): −0.608; Skp1a Log2FC (NM_011543, 100 mg/kg, vs vehicle): 0.227; Thbs2 Log2FC (NM_011581, 100 mg/kg, vs vehicle): −0.831; Timp2 Log2FC (NM_011594, 100 mg/kg, vs vehicle): −0.609; Tjp2 Log2FC (NM_011597, 100 mg/kg, vs vehicle): 0.204
